Earlier results, collected in patent US20260355183A1, “METHODS OF TREATING HEPATIC-ONLY METASTATIC UVEAL MELANOMA” (IDEAYA BIOSCIENCES, INC., priority 2023, published 2026).

Tests used:
[1] = system: ocular melanoma liver metastases; settings: in vivo
certain PKC isototypes = settings: background statement
[2] = system: uveal melanoma cells harboring GNAQ mutations; settings: by targeting PKC/ERK1/2 and PKC/NF-xB pathways; X. Wu et al., Mol. Cancer Ther. 11, 1905-1914, 2012

For `N[C@@H](Cc1ccc(N(CCCl)CCCl)cc1)C(=O)O` [melphalan], the DCR [1] is listed as 76.3%.

For `CN1CCN(c2nc(C3=C(c4c[nH]c5ccccc45)C(=O)NC3=O)c3ccccc3n2)CC1` [sotrastaurin], the “activity against PKC isotypes” value (certain PKC isototypes) is listed as “activity against certain PKC isototypes” and the “inhibition of growth of uveal melanoma cells harboring GNAQ mutations” value [2] is listed as “selectively inhibit the growth of uveal melanoma cells harboring GNAQ mutations”.
